In assay [1] the test system is cyclooxygenase of human granulocytes. Description: Inhibition of PGE2 secretion (cyclooxygenase) by human granulocytes stimulated by calcium ionophore A23187. Type of assay: cell-based. The conditions noted are these: concentration of 10^-5 M, A23187 5×10^-6 M, read-out: inhibition of the production of PGE2. The text has this:
The aim of this study is to measure the inhibiting activity of the compounds of the invention on the secretion of prostaglandin E2 (PGE2), one of the principal prostanoids produced by the cyclooxygenase of human granulocytes stimulated by the calcium ionophore A23187.
Human venous blood from blood donors who have not taken medicaments for 2 weeks is drawn into polypropylene tubes containing 1 volume of anti-coagulant (2.73% citric acid, 4.48% sodium citrate, 2% glucose) per 10 volumes of blood.
In the hour following taking the samples, 6% dextran is added to the blood (0.3 cm^3 /cm^3 of blood). After incubation for 30 min. at 37° C., the plasma rich in white corpuscles is centrifuged at a speed of 100 g for 5 min. at 4° C. […]
After centrifugation at a speed of 420 g for 30 min. at 4° C., the sediment rich in granulocytes is resuspended in 5 cm^3 of phosphate buffer and centrifuged at a speed of 100 g for 5 min. at 4° C. Finally, the granulocytes are counted and the density is adjusted to 3×10^6 cells/cm^3 of phosphate buffer.
The cells (3×10^6 cells/cm^3) are preincubated at 37° C. for 15 min. in the absence or presence of the products to be tested at the desired concentration. […] The base level is measured using cells without either the products to be tested or A23187. […]
The quantity of PGE2 produced is measured by a radioimmunological assay (RIA). […]

Assay [2] relates to lipoxygenase, human polynuclear cells. Description: Inhibition of LTB4 production (lipoxygenase) by human polynuclear cells activated by calcium ionophore A 23187. Format: cell-based. The following applies: concentration of 10^-5 M. The protocol:
The production of the principal prostanoid, resulting from lipoxygenase, produced by human polynuclear cells: leucotriene B4 (LTB4) is measured by a radioimmunological assay.

Structures are written as SMILES.

For `CC(C)(Sc1cc(C(C)(C)C)c(O)c(C(C)(C)C)c1)Sc1cc(C(C)(C)C)c(O)c(C(C)(C)C)c1` [probucol], the inhibition at 10 µM in assay [1] and in assay [2] was around 40% in each case.
